≈ marks a conversion by molar mass, not a printed value.
What was measured:
Format in all cases: functional
[1] = tested on: Saccharomyces cerevisiae; test: Growth inhibition of wild type Saccharomyces cerevisiae BY47411 at 5 mM after 48 hrs relative to control
[2] = tested on: Saccharomyces cerevisiae; test: Antifungal activity against wild type Saccharomyces cerevisiae BY47411 after 24 hrs
[3] = tested on: Saccharomyces cerevisiae; test: Growth inhibition of wild type Saccharomyces cerevisiae BY47411 at 6.4 mM after 48 hrs relative to control
[4] = tested on: Aspergillus flavus; test: Growth inhibition of wild type Aspergillus flavus NRRL3357 at 6.4 mM after 4 days; conditions: NRRL3357, 96 h
[5] = tested on: Aspergillus fumigatus; test: Growth inhibition of wild type Aspergillus fumigatus AF293 at 3.2 mM after 4 days; conditions: AF293, 96 h
[6] = tested on: Aspergillus fumigatus; test: Growth inhibition of wild type Aspergillus fumigatus AF293 at 6.4 mM after 4 days; conditions: AF293, 96 h
[7] = tested on: Aspergillus fumigatus; test: Fungicidal activity against wild type Aspergillus fumigatus AF293 assessed as radial growth on potato dextrose agar plate at 3.2 mM after 4 days
[8] = tested on: Aspergillus fumigatus; test: Growth inhibition of wild type Aspergillus fumigatus AF293 at 0.2 mM after 4 days; conditions: AF293, 96 h
[9] = tested on: Aspergillus flavus; test: Growth inhibition of wild type Aspergillus flavus NRRL3357 at 0.1 mM after 4 days; conditions: NRRL3357, 96 h
[10] = tested on: Aspergillus flavus; test: Growth inhibition of wild type Aspergillus flavus NRRL3357 at 1.6 mM after 4 days; conditions: NRRL3357, 96 h
[11] = tested on: Aspergillus fumigatus; test: Growth inhibition of wild type Aspergillus fumigatus AF293 at 0.8 mM after 4 days; conditions: AF293, 96 h
[12] = tested on: Saccharomyces cerevisiae; test: (§1) Growth inhibition of Saccharomyces cerevisiae bck1delta deletion mutant at 3.2 mM relative to control after 48 hrs
[13] = tested on: Aspergillus fumigatus; test: Fungicidal activity against wild type Aspergillus fumigatus AF293 assessed as radial growth on potato dextrose agar plate at 1.6 mM after 4 days
[14] = tested on: Saccharomyces cerevisiae; test: Antifungal activity against wild type Saccharomyces cerevisiae BY47411 assessed as cell number at 3.2 mM after 48 hrs
[15] = tested on: Aspergillus flavus; test: Growth inhibition of wild type Aspergillus flavus NRRL3357 at 0.2 mM after 4 days; conditions: NRRL3357, 96 h
[16] = tested on: Saccharomyces cerevisiae; test: Antifungal activity against wild type Saccharomyces cerevisiae BY47411 assessed as cell number at 1.6 mM after 48 hrs
[17] = tested on: Saccharomyces cerevisiae; test: Growth inhibition of wild type Saccharomyces cerevisiae BY47411 at 1.6 mM after 48 hrs relative to control
[18] = tested on: Saccharomyces cerevisiae; test: Growth inhibition of wild type Saccharomyces cerevisiae BY47411 at 3.2 mM after 48 hrs relative to control
[19] = tested on: Aspergillus fumigatus; test: Growth inhibition of wild type Aspergillus fumigatus AF293 at 0.1 mM after 4 days; conditions: AF293, 96 h
[20] = tested on: Saccharomyces cerevisiae; test: Antifungal activity against wild type Saccharomyces cerevisiae BY47411 assessed as cell number at 6.4 mM after 48 hrs
[21] = tested on: Aspergillus flavus; test: Antifungal activity against Aspergillus flavus NRRL3357
[22] = tested on: Aspergillus flavus; test: Fungicidal activity against wild type Aspergillus flavus NRRL3357 assessed as radial growth on potato dextrose agar plate at 0.1 mM after 4 days
[23] = tested on: Aspergillus fumigatus; test: Growth inhibition of wild type Aspergillus fumigatus AF293 at 1.6 mM after 4 days; conditions: AF293, 96 h
[24] = tested on: Saccharomyces cerevisiae; test: Growth inhibition of wild type Saccharomyces cerevisiae BY47411 at 0.8 mM after 48 hrs relative to control
[25] = tested on: Saccharomyces cerevisiae; test: Antifungal activity against Saccharomyces cerevisiae bck1delta deletion mutant assessed as cell number at 3.2 mM after 48 hrs
[26] = tested on: Aspergillus fumigatus; test: Fungicidal activity against wild type Aspergillus fumigatus AF293 assessed as radial growth on potato dextrose agar plate at 6.4 mM after 4 days
[27] = tested on: Aspergillus flavus; test: Growth inhibition of wild type Aspergillus flavus NRRL3357 at 0.4 mM after 4 days; conditions: NRRL3357, 96 h
[28] = tested on: Aspergillus fumigatus; test: Growth inhibition of wild type Aspergillus fumigatus AF293 at 0.4 mM after 4 days; conditions: AF293, 96 h
[29] = tested on: Aspergillus flavus; test: Fungicidal activity against wild type Aspergillus flavus NRRL3357 assessed as radial growth on potato dextrose agar plate at 3.2 mM after 4 days
[30] = tested on: Aspergillus fumigatus; test: Fungicidal activity against wild type Aspergillus fumigatus AF293 assessed as radial growth on potato dextrose agar plate at 0.2 mM after 4 days
[31] = tested on: Aspergillus flavus; test: Growth inhibition of wild type Aspergillus flavus NRRL3357 at 0.8 mM after 4 days; conditions: NRRL3357, 96 h
[32] = tested on: Aspergillus flavus; test: Fungicidal activity against wild type Aspergillus flavus NRRL3357 assessed as radial growth on potato dextrose agar plate at 0.4 mM after 4 days
[33] = tested on: Saccharomyces cerevisiae; test: Antifungal activity against wild type Saccharomyces cerevisiae BY47411 assessed as cell number at 0.8 mM after 48 hrs
[34] = tested on: Aspergillus fumigatus; test: Antifungal activity against Aspergillus fumigatus AF293
[35] = tested on: Saccharomyces cerevisiae; test: Antifungal activity against Saccharomyces cerevisiae bck1delta deletion mutant assessed as cell number at 1.6 mM after 48 hrs
[36] = tested on: Aspergillus flavus; test: Fungicidal activity against wild type Aspergillus flavus NRRL3357 assessed as radial growth on potato dextrose agar plate at 1.6 mM after 4 days
[37] = tested on: Saccharomyces cerevisiae; test: as §1; remark: listed apart in the source
[38] = tested on: Aspergillus flavus; test: Fungicidal activity against wild type Aspergillus flavus NRRL3357 assessed as radial growth on potato dextrose agar plate at 6.4 mM after 4 days
[39] = tested on: Aspergillus fumigatus; test: Fungicidal activity against wild type Aspergillus fumigatus AF293 assessed as radial growth on potato dextrose agar plate at 0.8 mM after 4 days
[40] = tested on: Aspergillus fumigatus; test: Fungicidal activity against wild type Aspergillus fumigatus AF293 assessed as radial growth on potato dextrose agar plate at 0.4 mM after 4 days
[41] = tested on: Aspergillus fumigatus; test: Fungicidal activity against wild type Aspergillus fumigatus AF293 assessed as radial growth on potato dextrose agar plate at 0.1 mM after 4 days
[42] = tested on: Aspergillus flavus; test: Fungicidal activity against wild type Aspergillus flavus NRRL3357 assessed as radial growth on potato dextrose agar plate at 0.8 mM after 4 days
[43] = tested on: Aspergillus flavus; test: Fungicidal activity against wild type Aspergillus flavus NRRL3357 assessed as radial growth on potato dextrose agar plate at 0.2 mM after 4 days
[44] = tested on: Aspergillus flavus; test: Growth inhibition of wild type Aspergillus flavus NRRL3357 at 3.2 mM after 4 days; conditions: NRRL3357, 96 h

How did the inhibition at 5000 µM [1] turn out when `CCCCCCCCCCOC(=O)CCc1ccc(O)c(OC)c1` [DIHYDROFERULIC ACID DECYL ESTER] was run?
Its inhibition at 5000 µM is 2.8%.

With `CCOC(=O)CCc1ccc(O)c(OC)c1` [DIHYDROFERULIC ACID ETHYL ESTER] as the compound, how does the MIC50 [2] read?
Its MIC50 is 4 mM (≈ 897 µg/mL).

What about the MIC90 [2] of the same compound?
Its MIC90 is over 6.4 mM.

And the inhibition at 5000 µM [1]?
Its inhibition at 5000 µM is 98.7%.

And the inhibition at 6400 µM [3]?
The inhibition at 6400 µM was 87%.

Which MIC50 [2] does the source give for `COC(=O)CCc1ccc(O)c(OC)c1` [DIHYDROFERULIC ACID METHYL ESTER] here?
Its MIC50 is 2.1 mM (≈ 441 µg/mL).

What about the MIC90 [2] of the same compound?
The MIC90 was 5.6 mM (≈ 1180 µg/mL).

And the inhibition at 5000 µM [1]?
The inhibition at 5000 µM was 100%.

How did the inhibition at 5000 µM [1] turn out when `CCCCCCCCOC(=O)CCc1ccc(O)c(OC)c1` [DIHYDROFERULIC ACID OCTYL ESTER] was run?
Its inhibition at 5000 µM is 6.2%.

`CCCOC(=O)CCc1ccc(O)c(OC)c1` [DIHYDROFERULIC ACID PROPYL ESTER] was tested. Which inhibition at 6400 µM [4] did it give?
Its inhibition at 6400 µM is 100%.

And the inhibition at 3200 µM [5]?
Its inhibition at 3200 µM is 78.8%.

What about the inhibition at 6400 µM [6] of the same compound?
Its inhibition at 6400 µM is 100%.

And the Activity [7]?
Its Activity is 1 cm.

What about the inhibition at 200 µM [8] of the same compound?
The inhibition at 200 µM was 2.2%.

And the inhibition at 100 µM [9]?
The inhibition at 100 µM was 0%.

And the inhibition at 1600 µM [10]?
Its inhibition at 1600 µM is 28.2%.

What about the inhibition at 800 µM [11] of the same compound?
Its inhibition at 800 µM is 17.1%.

What about the inhibition at 3200 µM [12] of the same compound?
Its inhibition at 3200 µM is 76.8%.

What about the Activity [13] of the same compound?
The Activity was 2.7 cm.

What about the MIC50 [2] of the same compound?
The MIC50 was 1.5 mM (≈ 357 µg/mL).

And the MIC90 [2]?
Its MIC90 is 4.5 mM (≈ 1070 µg/mL).

What about the Activity [14] of the same compound?
Its Activity is 0.03.

And the inhibition at 200 µM [15]?
The inhibition at 200 µM was 3.2%.

What about the Activity [16] of the same compound?
The Activity was 1.89.

And the inhibition at 1600 µM [17]?
Its inhibition at 1600 µM is 57.4%.

And the inhibition at 5000 µM [1]?
Its inhibition at 5000 µM is 99.4%.

And the inhibition at 3200 µM [18]?
Its inhibition at 3200 µM is 99.3%.

And the inhibition at 100 µM [19]?
The inhibition at 100 µM was 0%.

What about the Activity [20] of the same compound?
Its Activity is 0.

And the MIC50 [21]?
Its MIC50 is 2.9 mM (≈ 691 µg/mL).

And the Activity [22]?
The Activity was 3.2 cm.

What about the inhibition at 1600 µM [23] of the same compound?
Its inhibition at 1600 µM is 42.6%.

What about the inhibition at 800 µM [24] of the same compound?
The inhibition at 800 µM was 32.7%.

And the Activity [25]?
The Activity was 0.32.

What about the Activity [26] of the same compound?
The Activity was 0 cm.

What about the inhibition at 400 µM [27] of the same compound?
The inhibition at 400 µM was 6.3%.

What about the inhibition at 400 µM [28] of the same compound?
The inhibition at 400 µM was 10.7%.

What about the Activity [29] of the same compound?
Its Activity is 1.5 cm.

What about the Activity [30] of the same compound?
Its Activity is 4.6 cm.

What about the inhibition at 800 µM [31] of the same compound?
The inhibition at 800 µM was 12.5%.

And the Activity [32]?
The Activity was 3 cm.

And the Activity [33]?
The Activity was 2.99.

What about the MIC50 [34] of the same compound?
Its MIC50 is 2.1 mM (≈ 500 µg/mL).

And the inhibition at 6400 µM [3]?
The inhibition at 6400 µM was 100%.

And the Activity [35]?
The Activity was 1.07.

What about the Activity [36] of the same compound?
Its Activity is 2.3 cm.

What about the inhibition at 3200 µM [37] of the same compound?
The inhibition at 3200 µM was 93%.

What about the Activity [38] of the same compound?
The Activity was 0 cm.

And the Activity [39]?
Its Activity is 3.9 cm.

What about the Activity [40] of the same compound?
Its Activity is 4.2 cm.

What about the Activity [41] of the same compound?
Its Activity is 4.7 cm.

And the Activity [42]?
Its Activity is 2.8 cm.

What about the Activity [43] of the same compound?
Its Activity is 3.1 cm.

And the inhibition at 3200 µM [44]?
Its inhibition at 3200 µM is 53.2%.

Which results are given for `COc1cc(CCC(=O)O)ccc1O` [DIHYDROFERULIC ACID]?
MIC50 [2]: 6.4 mM (≈ 1260 µg/mL); inhibition at 5000 µM [1]: 6.4%

For `CCCCCCOC(=O)CCc1ccc(O)c(OC)c1` [HEXYLHYDROFERULATE], which Activity [14] is on record?
The Activity was 1.

What about the Activity [16] of the same compound?
The Activity was 2.74.

And the inhibition at 1600 µM [17]?
Its inhibition at 1600 µM is 38.3%.

And the inhibition at 5000 µM [1]?
Its inhibition at 5000 µM is 18.8%.

And the inhibition at 3200 µM [18]?
The inhibition at 3200 µM was 77.5%.

And the Activity [20]?
The Activity was 0.28.

What about the inhibition at 800 µM [24] of the same compound?
The inhibition at 800 µM was 18.7%.

What about the Activity [33] of the same compound?
The Activity was 3.61.

What about the inhibition at 6400 µM [3] of the same compound?
Its inhibition at 6400 µM is 93.7%.

From ChEMBL document CHEMBL1139888, “Fungicidal activities of dihydroferulic acid alkyl ester analogues” (2007)
